Results taken from patent US20230012374A1, “PROCESS FOR PRODUCING HERBICIDE AND INTERMEDIATE THEREOF” (KUMIAI CHEMICAL INDUSTRY CO., LTD., priority 2019, published 2023).

Test: Bulk specific gravity of pyroxasulfone crystals
Format: physicochemical
Details: crystal of pyroxasulfone

Cn1nc(C(F)(F)F)c(CS(=O)(=O)C2=NOC(C)(C)C2)c1OC(F)F [Example 3-1, 3-[(5-difluoromethoxy-1-methyl-3-trifluoromethylpyrazol-4-yl)methylsulfonyl]-4,5-dihydro-5,5-dimethylisoxazole]
bulk specific gravity: 1.04 g/mL

Cn1nc(C(F)(F)F)c(CS(=O)(=O)C2=NOC(C)(C)C2)c1OC(F)F [Comparative Example 3-1, 3-[(5-difluoromethoxy-1-methyl-3-trifluoromethylpyrazol-4-yl)methylsulfonyl]-4,5-dihydro-5,5-dimethylisoxazole]
bulk specific gravity: 0.53 g/mL
